# Test results taken from patent US4113714A, “[Des-Ala^1, Gly^2 -desamino-Cys^3 ]somatostatin” (American Home Products Corporation, priority 1975, dated 1978).
# System: cultured rat pituitary cells
# Experiment: in vitro inhibition of growth hormone secretion by cultured rat pituitary cells (radioimmunoassay)
# Assay type: cell-based
# Conditions: three hours at 37° C in Eagles medium, control 441±12
# Experimental: The activity of the undecapeptide of this invention was established in both in vitro and in vivo testing procedures, employing modifications of the techniques disclosed by Penso et al., Tissue Culture in Biological Research, Elsevier, 1963, p. 98; Berson et al., Metabolism, 13, 1135(1964).
# The in vitro tests were conducted by covering cultured rat pituitary cells contained in petri dishes with five milliliter portions of the undecapeptide, as its diacetate salt, in Eagles medium for three hours at 37° C. Three Petri dishes were employed for each solution concentration. The amount of growth hormone produced by the cultured pituitary cells is then compared with growth hormone produced by non-treated cells prepared in identical manner, via growth hormone radioimmunoassay. The difference between the growth hormone produced by treated and non-treated pituitary cells establishes the amount of inhibition by the compound under study.
# The cultured pituitary cells are prepared by excising and mincing rat pituitary glands followed by enzymatic separation of the cells (collagenase and hyaluronidase) and culture on synthetic nutrient media. When the cells attach themselves to the bottom of the plastic petri dish and cover the nutrient surface, they are washed with Eagles medium containing only inorganic salts, glucose and antibiotics in which state they are ready for use as above described.
# The activity of the undecapeptide of this invention was compared in vitro with somatostatin with the following results in which the concentration valves given are in nanograms/milliliter: […]
smiles,measurement,setting,value
C[C@H](N)C(=O)NCC(=O)N[C@H]1CSSC[C@@H](C(=O)O)NC(=O)[C@H](CO)NC(=O)[C@H]([C@@H](C)O)NC(=O)[C@H](Cc2ccccc2)NC(=O)[C@H]([C@@H](C)O)NC(=O)[C@H](CCCCN)NC(=O)[C@H](Cc2c[nH]c3ccccc23)NC(=O)[C@H](Cc2ccccc2)NC(=O)[C@H](Cc2ccccc2)NC(=O)[C@H](CC(N)=O)NC(=O)[C@H](CCCCN)NC1=O [somatostatin],Growth Hormone Secreted,compound concentration 10 ng/ml,260 ± 8 ng/mL
same,Growth Hormone Secreted,compound concentration 50 ng/ml,271 ± 22 ng/mL
same,Growth Hormone Secreted,compound concentration 100 ng/ml,250 ± 13 ng/mL
